The values that follow are results of earlier work, collected in patent US20020013357A1, “Valdecoxib compositions” (priority 1999, published 2002).

SMILES strings stand for the structures.

Take `Cc1onc(-c2ccccc2)c1-c1ccc(S(N)(=O)=O)cc1` [Valdecoxib, 4-(5-methyl-3-phenyl-4-isoxazolyl)benzenesulfonamide]: the solubility in water entry is recorded as “extremely low solubility in water”.
